Reference: PubChem BioAssay (NCI)
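All cell lines were grown in 96-well plates and treated with compound for 48 hours. Here, GI50 denotes the concentration required for 50% inhibition of growth. Definition used: TGI = concentration required for complete inhibition of growth.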

What was measured:
Assay in all cases: NCI-60 cell line screen, 48 h
786-0 renal = test system: 786-0 renal
A498 renal = test system: A498 renal
A549 NSCLC = test system: A549 NSCLC
ACHN renal = test system: ACHN renal
BT-549 breast = test system: BT-549 breast
CAKI-1 renal = test system: CAKI-1 renal
CCRF-CEM leukemia = test system: CCRF-CEM leukemia
COLO 205 colon = test system: COLO 205 colon
DU-145 prostate = test system: DU-145 prostate
EKVX NSCLC = test system: EKVX NSCLC
HCC-2998 colon = test system: HCC-2998 colon
HCT-116 colon = test system: HCT-116 colon
HCT-15 colon = test system: HCT-15 colon
HOP-62 NSCLC = test system: HOP-62 NSCLC
HOP-92 NSCLC = test system: HOP-92 NSCLC
HS 578T breast = test system: HS 578T breast
HT29 colon = test system: HT29 colon
IGROV1 ovarian = test system: IGROV1 ovarian
K-562 leukemia = test system: K-562 leukemia
KM12 colon = test system: KM12 colon
LOX IMVI melanoma = test system: LOX IMVI melanoma
M14 melanoma = test system: M14 melanoma
MCF7 breast = test system: MCF7 breast
MDA-MB-231 breast = test system: MDA-MB-231 breast
MDA-MB-435 = test system: MDA-MB-435
MOLT-4 leukemia = test system: MOLT-4 leukemia
NCI-H226 lung = test system: NCI-H226 lung
NCI-H23 lung = test system: NCI-H23 lung
NCI-H460 lung = test system: NCI-H460 lung
NCI-H522 lung = test system: NCI-H522 lung
OVCAR-3 ovarian = test system: OVCAR-3 ovarian
OVCAR-4 ovarian = test system: OVCAR-4 ovarian
OVCAR-5 ovarian = test system: OVCAR-5 ovarian
OVCAR-8 ovarian = test system: OVCAR-8 ovarian
PC-3 prostate = test system: PC-3 prostate
RPMI-8226 leukemia = test system: RPMI-8226 leukemia
RXF 393 renal = test system: RXF 393 renal
SF-268 CNS = test system: SF-268 CNS
SF-295 CNS = test system: SF-295 CNS
SF-539 CNS = test system: SF-539 CNS
SK-MEL-2 melanoma = test system: SK-MEL-2 melanoma
SK-MEL-28 melanoma = test system: SK-MEL-28 melanoma
SK-MEL-5 melanoma = test system: SK-MEL-5 melanoma
SK-OV-3 ovarian = test system: SK-OV-3 ovarian
SN12C renal = test system: SN12C renal
SNB-19 CNS = test system: SNB-19 CNS
SNB-75 CNS = test system: SNB-75 CNS
SR leukemia = test system: SR leukemia
SW-620 colon = test system: SW-620 colon
T-47D breast = test system: T-47D breast
TK-10 renal = test system: TK-10 renal
U251 CNS = test system: U251 CNS
UACC-257 melanoma = test system: UACC-257 melanoma
UACC-62 melanoma = test system: UACC-62 melanoma
UO-31 renal = test system: UO-31 renal

Q: Which results are given for COc1ccc(C2=C(c3cc(OC)c(OC)c(OC)c3)C(=O)OC2)cc1OC?
A: GI50 (786-0 renal): 52.2 nM; TGI (786-0 renal): > 62300 nM; GI50 (A498 renal): 134 nM; TGI (A498 renal): 21300 nM; GI50 (A549 NSCLC): 250 nM; TGI (A549 NSCLC): > 29100 nM; GI50 (ACHN renal): 67500 nM; TGI (ACHN renal): > 100000 nM; GI50 (BT-549 breast): 12100 nM; TGI (BT-549 breast): 97900 nM; GI50 (CAKI-1 renal): < 10 nM; TGI (CAKI-1 renal): 1240 nM; GI50 (CCRF-CEM leukemia): < 10 nM; TGI (CCRF-CEM leukemia): > 100000 nM; GI50 (COLO 205 colon): 295 nM; TGI (COLO 205 colon): 941 nM; GI50 (DU-145 prostate): 821 nM; TGI (DU-145 prostate): > 100000 nM; GI50 (EKVX NSCLC): 34500 nM; TGI (EKVX NSCLC): > 100000 nM; GI50 (HCC-2998 colon): 25 nM; TGI (HCC-2998 colon): 299 nM; GI50 (HCT-116 colon): 54.8 nM; TGI (HCT-116 colon): 55500 nM; GI50 (HCT-15 colon): 35.4 nM; TGI (HCT-15 colon): > 100000 nM; GI50 (HOP-62 NSCLC): 46.5 nM; TGI (HOP-62 NSCLC): > 100000 nM; GI50 (HOP-92 NSCLC): 6650 nM; TGI (HOP-92 NSCLC): > 100000 nM; GI50 (HS 578T breast): 123 nM; TGI (HS 578T breast): 39100 nM; GI50 (HT29 colon): 25.6 nM; TGI (HT29 colon): > 24300 nM; GI50 (IGROV1 ovarian): 353 nM; TGI (IGROV1 ovarian): > 55600 nM; GI50 (K-562 leukemia): < 15.3 nM; TGI (K-562 leukemia): > 100000 nM; GI50 (KM12 colon): < 16.4 nM; GI50 (LOX IMVI melanoma): 428 nM; TGI (LOX IMVI melanoma): > 49400 nM; GI50 (M14 melanoma): 23.1 nM; TGI (M14 melanoma): 1760 nM; GI50 (MCF7 breast): < 18.7 nM; TGI (MCF7 breast): > 100000 nM; GI50 (MDA-MB-231 breast): 576 nM; TGI (MDA-MB-231 breast): > 75900 nM; GI50 (MDA-MB-435): < 10 nM; TGI (MDA-MB-435): 10.9 nM; GI50 (MOLT-4 leukemia): 46.6 nM; TGI (MOLT-4 leukemia): > 100000 nM; GI50 (NCI-H226 lung): 6060 nM; TGI (NCI-H226 lung): > 28500 nM; GI50 (NCI-H23 lung): 25.1 nM; TGI (NCI-H23 lung): 13400 nM; GI50 (NCI-H460 lung): < 22.2 nM; TGI (NCI-H460 lung): > 42600 nM; GI50 (NCI-H522 lung): < 18.9 nM; TGI (NCI-H522 lung): > 46700 nM; GI50 (OVCAR-3 ovarian): < 11.2 nM; TGI (OVCAR-3 ovarian): < 20.6 nM; GI50 (OVCAR-4 ovarian): 2650 nM; TGI (OVCAR-4 ovarian): > 100000 nM; GI50 (OVCAR-5 ovarian): 379 nM; TGI (OVCAR-5 ovarian): > 48400 nM; GI50 (OVCAR-8 ovarian): 163 nM; GI50 (PC-3 prostate): < 15.1 nM; TGI (PC-3 prostate): > 100000 nM; GI50 (RPMI-8226 leukemia): < 19.9 nM; TGI (RPMI-8226 leukemia): 961 nM; GI50 (RXF 393 renal): 14.6 nM; TGI (RXF 393 renal): > 100000 nM; GI50 (SF-268 CNS): 90.6 nM; TGI (SF-268 CNS): 30500 nM; GI50 (SF-295 CNS): < 10 nM; TGI (SF-295 CNS): 21.7 nM; GI50 (SF-539 CNS): 301 nM; TGI (SF-539 CNS): 4100 nM; GI50 (SK-MEL-2 melanoma): 31.3 nM; TGI (SK-MEL-2 melanoma): > 100000 nM; GI50 (SK-MEL-28 melanoma): 47600 nM; TGI (SK-MEL-28 melanoma): > 100000 nM; GI50 (SK-MEL-5 melanoma): 18.2 nM; TGI (SK-MEL-5 melanoma): 1500 nM; GI50 (SK-OV-3 ovarian): 8270 nM; TGI (SK-OV-3 ovarian): > 100000 nM; GI50 (SN12C renal): 567 nM; TGI (SN12C renal): 73100 nM; GI50 (SNB-19 CNS): 891 nM; TGI (SNB-19 CNS): > 100000 nM; GI50 (SNB-75 CNS): > 100000 nM; TGI (SNB-75 CNS): > 100000 nM; GI50 (SR leukemia): < 10 nM; GI50 (SW-620 colon): 105 nM; TGI (SW-620 colon): > 100000 nM; GI50 (T-47D breast): 54000 nM; TGI (T-47D breast): > 100000 nM; GI50 (TK-10 renal): < 28.3 nM; TGI (TK-10 renal): 1910 nM; GI50 (U251 CNS): 187 nM; TGI (U251 CNS): > 100000 nM; GI50 (UACC-257 melanoma): > 38600 nM; TGI (UACC-257 melanoma): > 81100 nM; GI50 (UACC-62 melanoma): 336 nM; TGI (UACC-62 melanoma): > 79500 nM; GI50 (UO-31 renal): 284 nM; TGI (UO-31 renal): > 50900 nM
